Results reported in ChEMBL document CHEMBL3600372, “Scapairrins A-Q, Labdane-Type Diterpenoids from the Chinese Liverwort Scapania irrigua and Their Cytotoxic Activity” (J Nat Prod, 2015).
pIC50: −log10 of the molar value.

How the values were obtained:
HeLa = assay: Cytotoxicity against human HeLa cells after 24 hrs by MTT assay; format: functional, cell-based
HUVEC = assay: Cytotoxicity against human HUVEC after 24 hrs by MTT assay; format: cell-based
MDA-MB-231 = assay: Cytotoxicity against human MDA-MB-231 cells after 24 hrs by MTT assay; format: functional, cell-based; conditions: MDA-MB-231, 24 h
A549 = assay: Cytotoxicity against human A549 cells after 24 hrs by MTT assay; format: functional, cell-based; conditions: A549, 24 h
HT-29 = assay: Cytotoxicity against human HT-29 cells after 24 hrs by MTT assay; format: functional, cell-based; conditions: HT-29, 24 h
A2780 = assay: Cytotoxicity against human A2780 cells after 24 hrs by MTT assay; format: functional, cell-based; conditions: A2780, 24 h

Row | SMILES | pIC50 (HeLa) | pIC50 (HUVEC) | pIC50 (MDA-MB-231) | pIC50 (A549) | pIC50 (HT-29) | pIC50 (A2780)
1 | C=C([C@@H]1C[C@H]2[C@@](C)(CC[C@@]3(O)C(C)(C)CCC(=O)[C@]23C)O1)[C@@H](C)O | < 5.00 | < 5.00 | < 5.00 | < 5.00 | < 5.00 | < 5.00
2 | C/C=C(\C)[C@@H]1C[C@H]2[C@@](C)(CC[C@@]3(O)C(C)(C)CCC[C@]23C)O1 | < 5.00 | < 5.00 | < 5.00 | < 5.00 | < 5.00 | < 5.00
3 | C=C([C@@H]1C[C@H]2[C@@](C)(CC[C@@]3(O)C(C)(C)CCC[C@]23C)O1)[C@@H](C)O | < 5.00 | < 5.00 | < 5.00 | < 5.00 | < 5.00 | < 5.00
4 | CC1(C)CCC[C@]2(C)C3=CC(=O)O[C@]3(C)CC[C@@]12O | < 5.00 | < 5.00 | < 5.00 | < 5.00 | < 5.00 | < 5.00
5 | C/C=C(\C)C(=O)C[C@]1(O)[C@@]2(C)CCCC(C)(C)[C@]2(O)CC[C@@]1(C)O | < 5.00 | < 5.00 | < 5.00 | < 5.00 | < 5.00 | < 5.00
6 | C=C(C(C)=O)[C@@H]1C[C@@H]2[C@@]3(C)[C@@H](O)CCC(C)(C)[C@]3(O)CC[C@@]2(C)O1 | 5.18 | < 5.00 | 5.39 | < 5.00 | 5.24 | 5.28
7 | C[C@@H]1O[C@@]1(C)C(=O)C[C@H]1[C@](C)(O)CC[C@@]2(O)C(C)(C)CCC[C@]12C | < 5.00 | < 5.00 | < 5.00 | < 5.00 | < 5.00 | < 5.00
8 | C=C([C@H](C)O)[C@@H]1C[C@H]2[C@@](C)(CC[C@@]3(O)C(C)(C)CCC(=O)[C@]23C)O1 | < 5.00 | < 5.00 | < 5.00 | < 5.00 | < 5.00 | < 5.00
9 | C=C([C@@H]1C[C@@H]2[C@@]3(C)[C@@H](O)CCC(C)(C)[C@]3(O)CC[C@@]2(C)O1)[C@@H](C)O | < 5.00 | < 5.00 | < 5.00 | < 5.00 | < 5.00 | < 5.00
10 | C/C=C(\C)C(=O)C[C@@H]1[C@@]2(C)[C@@H](O)CCC(C)(C)[C@]2(O)CC[C@@]1(C)O | < 5.00 | < 5.00 | < 5.00 | < 5.00 | < 5.00 | < 5.00
11 | C[C@H]1O[C@]1(C)C(=O)C[C@H]1[C@](C)(O)CC[C@@]2(O)C(C)(C)CCC[C@]12C | < 5.00 | < 5.00 | < 5.00 | < 5.00 | < 5.00 | < 5.00
12 | C/C=C(\C)[C@@H]1C[C@H]2[C@@](C)(CC[C@@]3(O)C(C)(C)CCC(=O)[C@]23C)O1 | < 5.00 | < 5.00 | < 5.00 | < 5.00 | < 5.00 | < 5.00
13 | C=C(C(C)=O)[C@H]1C[C@@H]2[C@@]3(C)[C@@H](O)CCC(C)(C)[C@]3(O)CC[C@@]2(C)O1 | 5.26 | < 5.00 | 5.27 | < 5.00 | 5.15 | 5.36
14 | C[C@H]1O[C@]1(C)C(=O)C[C@@H]1[C@@]2(C)[C@@H](O)CCC(C)(C)[C@]2(O)CC[C@@]1(C)O | < 5.00 | < 5.00 | < 5.00 | < 5.00 | < 5.00 | < 5.00
15 | C=C([C@H](C)O)[C@@H]1C[C@H]2[C@@](C)(CC[C@@]3(O)C(C)(C)CCC[C@]23C)O1 | < 5.00 | < 5.00 | < 5.00 | < 5.00 | < 5.00 | < 5.00
16 | C=C([C@H](C)O)[C@@H]1C[C@@H]2[C@@]3(C)[C@@H](O)CCC(C)(C)[C@]3(O)CC[C@@]2(C)O1 | < 5.00 | < 5.00 | < 5.00 | < 5.00 | < 5.00 | < 5.00
17 | COc1cccc2c1C(=O)c1c(O)c3c(c(O)c1C2=O)C[C@@](O)(C(=O)CO)C[C@@H]3O[C@H]1C[C@H](N)[C@H](O)[C@H](C)O1 [DOXORUBICIN] | 5.28 | 5.20 | 6.22 | – | 5.77 | –
18 | C[C@@H]1O[C@@]1(C)C(=O)C[C@@H]1[C@@]2(C)[C@@H](O)CCC(C)(C)[C@]2(O)CC[C@@]1(C)O | < 5.00 | < 5.00 | < 5.00 | < 5.00 | < 5.00 | < 5.00
19 | C=C(C(C)=O)[C@@H]1C[C@H]2[C@@](C)(CC[C@@]3(O)C(C)(C)CCC[C@]23C)O1 | 5.08 | 5.52 | 5.38 | < 5.00 | 5.28 | 5.07
20 | C/C=C(\C)C(=O)C[C@H]1[C@](C)(O)CC[C@@]2(O)C(C)(C)CCC[C@]12C | < 5.00 | < 5.00 | < 5.00 | < 5.00 | < 5.00 | < 5.00
21 | C=C(C(C)=O)[C@@H]1C[C@H]2[C@@](C)(CC[C@@]3(O)C(C)(C)CCC(=O)[C@]23C)O1 | 5.06 | < 5.00 | 5.30 | < 5.00 | 5.17 | 5.11
